Experimental data published in ChEMBL document CHEMBL3232826.
Where a name gives a salt, the structure may show the parent alone.

What was measured:
in vitro = conditions: dog, MDCK cells
Description: Selectivity index, ratio of CTD50 for MDCK cells to ED50 for Influenza A virus (A/California/07/09(H1N1)) pdm09

[1] = Cytotoxicity against MDCK cells assessed as cell viability after 48 hrs by MTT assay; type: cell-based, Canis lupus familiaris; conditions: dog, read-out: CTD50

Row | SMILES | selectivity ratio (in vitro) | CC50 at 48 h [1]
1 | NC12CC3CC(CC(C3)C1)C2 [AMANTADINE] | 4 | 
2 | CC1(C)[C@@H]2CC[C@@]1(C)[C@H](NCCCCCCCCCCCCN[C@@H]1C[C@H]3CC[C@]1(C)C3(C)C)C2 | 3 | 14.4 µM
3 | CC(N)C12CC3CC(CC(C3)C1)C2 (stereo unspecified) [RIMANTADINE HYDROCHLORIDE] | 5 | 
4 | CC(N)C1CC2CCC1C2 (stereo unspecified) |  | 1270 µM
5 | CC1(C)[C@@H]2CC[C@@]1(C)[C@H](Nc1ccc(Cc3ccc(N[C@@H]4C[C@H]5CC[C@]4(C)C5(C)C)cc3)cc1)C2 | 4 | > 638 µM
6 | CC1(C)[C@@H]2CC[C@@]1(C)/C(=N/c1ccc(Oc3ccc(/N=C4\C[C@H]5CC[C@]4(C)C5(C)C)cc3)cc1)C2 | 3 | > 1070 µM
7 | CC1(C)[C@@H]2CC[C@@]1(C)/C(=N/CCCCCC/N=C1\C[C@H]3CC[C@]1(C)C3(C)C)C2 | 89 | 1350 µM
8 | CN(CCCCCCCN(C)[C@@H]1C[C@H]2CC[C@]1(C)C2(C)C)[C@@H]1C[C@H]2CC[C@]1(C)C2(C)C | 17 | 698 µM
9 | CN(CCCCCCN(C)[C@@H]1C[C@H]2CC[C@]1(C)C2(C)C)[C@@H]1C[C@H]2CC[C@]1(C)C2(C)C | 1 | 110 µM
10 | CC1(C)[C@@H]2CC[C@@]1(C)/C(=N/c1ccc(Oc3ccc(N)cc3)cc1)C2 | 8 | 32.9 µM
11 | CC1(C)[C@@H]2CC[C@@]1(C)/C(=N/CCCCCCCC/N=C1\C[C@H]3CC[C@]1(C)C3(C)C)C2 | 16 | 390 µM
12 | CC1(C)C2CC[C@@]1(C)C(=O)C2 [CAMPHOR] | 2 | 
13 | CC1(C)[C@@H]2CC[C@@]1(C)[C@H](NCCCCCCN[C@@H]1C[C@H]3CC[C@]1(C)C3(C)C)C2 | 7 | 5.4 µM
14 | CC1(C)[C@@H]2CC[C@@]1(C)[C@H](NCCCCCCCN[C@@H]1C[C@H]3CC[C@]1(C)C3(C)C)C2 | 3 | 10.4 µM
15 | CC1(C)[C@@H]2CC[C@@]1(C)/C(=N/c1ccc(Cc3ccc(/N=C4\C[C@H]5CC[C@]4(C)C5(C)C)cc3)cc1)C2 | 3 | > 1070 µM
16 | CC1(C)[C@@H]2CC[C@@]1(C)[C@H](Nc1ccc(Oc3ccc(N[C@@H]4C[C@H]5CC[C@]4(C)C5(C)C)cc3)cc1)C2 | 3 | > 636 µM
17 | CC1(C)[C@@H]2CC[C@@]1(C)/C(=N/CCC/N=C1\C[C@H]3CC[C@]1(C)C3(C)C)C2 | 30 | 284 µM
18 | CC1(C)[C@@H]2CC[C@@]1(C)/C(=N/CCCCCCCCCCCC/N=C1\C[C@H]3CC[C@]1(C)C3(C)C)C2 | 49 | 2220 µM
19 | CC1(C)[C@@H]2CC[C@@]1(C)/C(=N/CCCCCCC/N=C1\C[C@H]3CC[C@]1(C)C3(C)C)C2 | 55 | 1260 µM
20 | CC1(C)[C@@H]2CC[C@@]1(C)/C(=N/c1ccc(Cc3ccc(N)cc3)cc1)C2 | 2 | 30.1 µM
